The target of this experiment is T1, PSMA-expressing LNCaP cells (Homo sapiens, UniProt Q04609).
T1 construct: PSMA-expressing LNCaP cells; endogenous in cells; host or cells: LNCaP
Description: Binding competition assay against 3H-PSMA-617 on LNCaP cells. The settings on record: LNCaP cells, 10 nM 3H-PSMA-617, 2 h at 37° C., triplicates; for remaining activity at 0.01 µM / % remaining 3H-PSMA-617 @ 10 nM (mean): competing non-radiolabeled compound 10 nM; for remaining activity at 0.1 µM / % remaining 3H-PSMA-617 @ 100 nM (mean): competing non-radiolabeled compound 100 nM. The procedure:
Cells were incubated at 37° C. and 5% CO2 over night. […] After addition of the compounds in growth media the cells were swiveled slightly on a shaker mixing for 10 min followed by incubation for 2 h at 37° C., 5% C02. Following the incubation time the supernatant was removed by pipetting and cells were washed twice with ice cold PBS (total of 800 μl). Cells were lysed in 500 μl of 0.3M NaOH (PanReac AppliChem ITW Reagents) by vigorous shaking for 15 min and the cell lysated pipetted into scintillator tubes (S207-[…]® Scintillation Vials 6.5 ml #S207, Simport). In the following the wells were washed with 500 μl PBS and the washing PBS added to the corresponding samples in the sincitallator tubes. To each sample in the scintillator tubes 4 mL of Ultima Gold liquid scintillation cocktail (Sigma-Aldrich #L8286) was added and the samples let stand for at least 30 min. Thereafter radioactivity was counted in a Tri-Carb Liquid Scinzillation Analyzer (Perkin Elmer).

Structures are written as SMILES.

T1 sequence (Q04609 whole entry): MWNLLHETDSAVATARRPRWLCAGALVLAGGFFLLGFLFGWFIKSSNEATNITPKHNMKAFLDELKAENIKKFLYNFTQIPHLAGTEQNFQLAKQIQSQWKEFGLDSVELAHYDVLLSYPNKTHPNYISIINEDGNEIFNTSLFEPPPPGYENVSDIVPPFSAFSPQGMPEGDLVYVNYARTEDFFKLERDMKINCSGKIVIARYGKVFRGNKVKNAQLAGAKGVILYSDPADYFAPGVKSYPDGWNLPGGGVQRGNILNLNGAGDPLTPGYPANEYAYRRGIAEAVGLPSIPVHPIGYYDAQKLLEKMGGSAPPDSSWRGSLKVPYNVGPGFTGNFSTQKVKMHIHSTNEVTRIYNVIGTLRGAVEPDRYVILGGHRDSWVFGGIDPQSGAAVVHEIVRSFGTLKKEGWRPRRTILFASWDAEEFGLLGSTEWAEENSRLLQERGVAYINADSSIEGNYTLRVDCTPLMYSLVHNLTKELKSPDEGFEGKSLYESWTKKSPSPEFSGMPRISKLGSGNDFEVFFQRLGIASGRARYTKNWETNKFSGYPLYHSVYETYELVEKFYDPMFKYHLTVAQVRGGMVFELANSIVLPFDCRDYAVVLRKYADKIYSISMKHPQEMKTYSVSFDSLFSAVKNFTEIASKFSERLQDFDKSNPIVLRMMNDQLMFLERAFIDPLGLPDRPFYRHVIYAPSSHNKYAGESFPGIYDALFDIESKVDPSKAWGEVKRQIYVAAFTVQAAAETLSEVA

For `Cc1cc(C(=O)NCCN(CCCN(CCNC(=O)c2cc(C)n(CC(=O)O)c(=O)c2O)CCNC(=O)c2cc(C)n(CC(=O)NCc3ccc(C(=O)N[C@@H](Cc4ccc5ccccc5n4)C(=O)NCCCC[C@H](NC(=O)N[C@@H](CCC(=O)O)C(=O)O)C(=O)O)nc3)c(=O)c2O)CCNC(=O)c2cc(C)n(CC(=O)NCc3ccc(C(=O)NC(Cc4ccc5ccccc5n4)C(=O)NCCCC[C@H](NC(=O)N[C@@H](CCC(=O)O)C(=O)O)C(=O)O)nc3)c(=O)c2O)c(O)c(=O)n1CC(=O)O` (stereo partly drawn) [34-C dimer, (3S,10S,14S,3'S,10'S,14'S)-1,1′-(propane-1,3-diylbis{[(2-{[1-(carboxymethyl)-3-hydroxy-6-methyl-2-oxo-1,2-dihydropyridine-4-carbonyl]amino}ethyl)azanediyl]ethane-2,1-diylcarbamoyl(3-hydroxy-6-methyl-2-oxopyridine-4,1(2H)-diyl)(1-oxoethane-2,1-diyl)azanediylmethylenepyridine-5,2-diyl})bis{1,4,12-trioxo-3-[(quinolin-2-yl)methyl]-2,5,11,13-tetraazahexadecane-10,14,16-tricarboxylic acid}], the remaining activity at 0.01 µM came out at 42% and the remaining activity at 0.1 µM stood at 7%.
In the case of `Cc1cc(C(=O)NCCN(CCCN(CCNC(=O)c2cc(C)n(CC(=O)O)c(=O)c2O)CCNC(=O)c2cc(C)n(CC(=O)NCc3ccc(C(=O)N[C@@H](Cc4ccc5ccccc5n4)C(=O)NCCCC[C@H](NC(=O)N[C@@H](CCC(=O)O)C(=O)O)C(=O)O)nc3)c(=O)c2O)CCNC(=O)c2cc(C)n(CC(=O)O)c(=O)c2O)c(O)c(=O)n1CC(=O)O` [34-C monomer], the remaining activity at 0.01 µM is 58% and the remaining activity at 0.1 µM was 10%.
Consider `NC[C@H]1CC[C@H](C(=O)NC(Cc2ccc3ccccc3c2)C(=O)NCCCC[C@H](NC(=O)N[C@@H](CCC(=O)O)C(=O)O)C(=O)O)CC1` (stereo partly drawn) [Example 1-A, (3S,10S,14S)-1-[(1r,4S)-4-(aminomethyl)cyclohexyl]-3-[(naphthalen-2-yl)methyl]-1,4,12-trioxo-2,5,11,13-tetraazahexadecane-10,14,16-tricarboxylic acid], for which the remaining activity at 0.01 µM was found to be 90% and the remaining activity at 0.1 µM is 45%.
`O=C(O)CC[C@H](NC(=O)N[C@@H](CCCCNC(=O)[C@H](Cc1ccc2ccccc2c1)NC(=O)[C@H]1CC[C@H](CNC(=O)CN2CCN(CC(=O)O)CCN(CC(=O)O)CCN(CC(=O)O)CC2)CC1)C(=O)O)C(=O)O` [Example 1-B, (3S,10S,14S)-3-[(naphthalen-2-yl)methyl]-1,4,12-trioxo-1-[(1r,4S)-4-({2-[4,7,10-tris(carboxymethyl)-1,4,7,10-tetraazacyclododecan-1-yl]acetamido}methyl)cyclohexyl]-2,5,11,13-tetraazahexadecane-10,14,16-tricarboxylic acid, reference compound]: the remaining activity at 0.01 µM was 66% and the remaining activity at 0.1 µM was 17%.
`O=C(O)CC[C@H](NC(=O)N[C@@H](CCCCNC(=O)[C@H](Cc1ccc2ccccc2c1)NC(=O)[C@H]1CC[C@H](CNC(=O)C[N+]23CC[N+]45CC[N+]67CC[N+]8(CC2)CC(=O)[O][Th]3486([O]C(=O)C5)[O]C(=O)C7)CC1)C(=O)O)C(=O)O` (stereo partly shown) [Example 1-B-232Th, {3-[(naphthalen-2-yl)methyl]-1,4,12-trioxo-1-{4-[(2-{4,7,10-tris[(carboxy-kappaO)methyl]-1,4,7,10-tetraazacyclododecan-1-yl-kappa^4N^1,N^4,N^7,N^10}acetamido)methyl]cyclohexyl}-2,5,11,13-tetraazahexadecane-10,14,16-tricarboxylato(4−)}thorium(3+)]: the “% remaining 3H-PSMA-617 @ 10 nM (mean)” value turned out to be 71% and the “% remaining 3H-PSMA-617 @ 100 nM (mean)” value is 12%.
Consider `O=C(O)CC[C@@H](NC(=O)N[C@@H](CCCCNC(=O)[C@H](Cc1ccc2ccccc2c1)NC(=O)[C@H]1CC[C@H](CNC(=O)CN2CCN(CC(=O)O)CCN(CC(=O)O)CCN(CC(=O)O)CC2)CC1)C(=O)O)C(=O)O` [Example 1-B-D, (3S,10S,14R)-3-[(naphthalen-2-yl)methyl]-1,4,12-trioxo-1-[(1r,4S)-4-({2-[4,7,10-tris(carboxymethyl)-1,4,7,10-tetraazacyclododecan-1-yl]acetamido}methyl)cyclohexyl]-2,5,11,13-tetraazahexadecane-10,14,16-tricarboxylic acid], for which the remaining activity at 0.01 µM was determined as 80% and the remaining activity at 0.1 µM turned out to be 78%.
As to `O=C(O)CC[C@H](NC(=O)N[C@@H](CCCCNC(=O)[C@H](Cc1ccc2ccccc2c1)NC(=O)[C@H]1CC[C@H](CNC(=S)Nc2ccc(CC(CN(CCNC(=O)c3ccn(CCO)c(=O)c3O)CCNC(=O)c3ccn(CCO)c(=O)c3O)CN(CCNC(=O)c3ccn(CCO)c(=O)c3O)CCNC(=O)c3ccn(CCO)c(=O)c3O)cc2)CC1)C(=O)O)C(=O)O` [Example 1-F, (3S,10S,14S)-1-{(1r,4S)-4-[({[4-(3-[bis(2-{[3-hydroxy-1-(2-hydroxyethyl)-2-oxo-1,2-dihydropyridine-4-carbonyl]amino}ethyl)amino]-2-{[bis(2-{[3-hydroxy-1-(2-hydroxyethyl)-2-oxo-1,2-dihydropyridine-4-carbonyl]amino}ethyl)amino]methyl}propyl)phenyl]carbamothioyl}amino)methyl]cyclohexyl}-3-[(naphthalen-2-yl)methyl]-1,4,12-trioxo-2,5,11,13-tetraazahexadecane-10,14,16-tricarboxylic acid], the remaining activity at 0.01 µM amounted to 71% and the remaining activity at 0.1 µM is 21%.
Take `O=C(O)CC[C@H](NC(=O)N[C@@H](CCCCNC(=O)[C@H](Cc1ccc2ccccc2c1)NC(=O)[C@H]1CC[C@H](CNC(=O)COCC(=O)NCCOCCOCCOCCOCCOCCOCCOCCOCCOCCOCCOCCNC(=O)COCC(=O)Nc2ccc(CC(CN(CCNC(=O)c3ccn(CCO)c(=O)c3O)CCNC(=O)c3ccn(CCO)c(=O)c3O)CN(CCNC(=O)c3ccn(CCO)c(=O)c3O)CCNC(=O)c3ccn(CCO)c(=O)c3O)cc2)CC1)C(=O)O)C(=O)O` [Example 1-PEG]: the “% remaining 3H-PSMA-617 @ 10 nM (mean)” value turned out to be 80% and the “% remaining 3H-PSMA-617 @ 100 nM (mean)” value came to 41%.
Take `NC[C@H]1CC[C@H](C(=O)N[C@@H](CCCc2ccccc2)C(=O)NCCCC[C@H](NC(=O)N[C@@H](CCC(=O)O)C(=O)O)C(=O)O)CC1` [Example 3-A, N^6—{N-[(1r,4S)-4-(aminomethyl)cyclohexane-1-carbonyl]-5-phenyl-L-norvalyl}-N^2-{[(1S)-1,3-dicarboxypropyl]carbamoyl}-L-lysine]: the remaining activity at 0.01 µM is 100% and the remaining activity at 0.1 µM stood at 88%.
Consider `NCC1CCC(C(=O)N[C@@H](CCCNC(N)=O)C(=O)NCCCC[C@H](NC(=O)N[C@@H](CCC(=O)O)C(=O)O)C(=O)O)CC1` (stereo partly drawn) [Example 4-A, N^6—{N^2-[(1r,4S)-4-(aminomethyl)cyclohexane-1-carbonyl]-N^5-carbamoyl-L-ornithyl}-N^2-{[(1S)-1,3-dicarboxypropyl]carbamoyl}-L-lysine], for which the remaining activity at 0.01 µM came out at 106% and the remaining activity at 0.1 µM came to 112%.
Taken in the same sequence, the figures for `NC[C@H]1CC[C@H](C(=O)N[C@@H](CCCCNC(N)=O)C(=O)NCCCC[C@H](NC(=O)N[C@@H](CCC(=O)O)C(=O)O)C(=O)O)CC1` [Example 5-A, N^6—{N^2-[(1r,4S)-4-(aminomethyl)cyclohexane-1-carbonyl]-N^6-carbamoyl-L-lysyl}-N^2-{[(1S)-1,3-dicarboxypropyl]carbamoyl}-L-lysine] were 109% and 112%.

The values above are taken from patent publication US20230072421A1, “TARGETED RADIOPHARMACEUTICALS FOR THE DIAGNOSIS AND TREATMENT OF PROSTATE CANCER” (Bayer AS, priority 2019, published 2023).
